Measurements: US7981903B2, “2-[2-{phenylamino}-1H-pyrrolo[2,3-D]pyrimidin-4-yl)amino] benzamide derivatives as IGF-1R inhibitors for the treatment of cancer” (GlaxoSmithKline LLC, priority 2007, dated 2011)
Several values for one entry are separate records, joined by “and”; a condition that tells them apart may be missing. Identical values can stand only once.

Assays:
ALK = ALK (Homo sapiens, UniProt Q9UM73); test: ALK enzyme assay (HTRF); assay type: biochemical; conditions: 0.25 nM ALK, 15.0 μM ATP, values given as pIC50 category
Chain of ALK (Q9UM73 19-1620): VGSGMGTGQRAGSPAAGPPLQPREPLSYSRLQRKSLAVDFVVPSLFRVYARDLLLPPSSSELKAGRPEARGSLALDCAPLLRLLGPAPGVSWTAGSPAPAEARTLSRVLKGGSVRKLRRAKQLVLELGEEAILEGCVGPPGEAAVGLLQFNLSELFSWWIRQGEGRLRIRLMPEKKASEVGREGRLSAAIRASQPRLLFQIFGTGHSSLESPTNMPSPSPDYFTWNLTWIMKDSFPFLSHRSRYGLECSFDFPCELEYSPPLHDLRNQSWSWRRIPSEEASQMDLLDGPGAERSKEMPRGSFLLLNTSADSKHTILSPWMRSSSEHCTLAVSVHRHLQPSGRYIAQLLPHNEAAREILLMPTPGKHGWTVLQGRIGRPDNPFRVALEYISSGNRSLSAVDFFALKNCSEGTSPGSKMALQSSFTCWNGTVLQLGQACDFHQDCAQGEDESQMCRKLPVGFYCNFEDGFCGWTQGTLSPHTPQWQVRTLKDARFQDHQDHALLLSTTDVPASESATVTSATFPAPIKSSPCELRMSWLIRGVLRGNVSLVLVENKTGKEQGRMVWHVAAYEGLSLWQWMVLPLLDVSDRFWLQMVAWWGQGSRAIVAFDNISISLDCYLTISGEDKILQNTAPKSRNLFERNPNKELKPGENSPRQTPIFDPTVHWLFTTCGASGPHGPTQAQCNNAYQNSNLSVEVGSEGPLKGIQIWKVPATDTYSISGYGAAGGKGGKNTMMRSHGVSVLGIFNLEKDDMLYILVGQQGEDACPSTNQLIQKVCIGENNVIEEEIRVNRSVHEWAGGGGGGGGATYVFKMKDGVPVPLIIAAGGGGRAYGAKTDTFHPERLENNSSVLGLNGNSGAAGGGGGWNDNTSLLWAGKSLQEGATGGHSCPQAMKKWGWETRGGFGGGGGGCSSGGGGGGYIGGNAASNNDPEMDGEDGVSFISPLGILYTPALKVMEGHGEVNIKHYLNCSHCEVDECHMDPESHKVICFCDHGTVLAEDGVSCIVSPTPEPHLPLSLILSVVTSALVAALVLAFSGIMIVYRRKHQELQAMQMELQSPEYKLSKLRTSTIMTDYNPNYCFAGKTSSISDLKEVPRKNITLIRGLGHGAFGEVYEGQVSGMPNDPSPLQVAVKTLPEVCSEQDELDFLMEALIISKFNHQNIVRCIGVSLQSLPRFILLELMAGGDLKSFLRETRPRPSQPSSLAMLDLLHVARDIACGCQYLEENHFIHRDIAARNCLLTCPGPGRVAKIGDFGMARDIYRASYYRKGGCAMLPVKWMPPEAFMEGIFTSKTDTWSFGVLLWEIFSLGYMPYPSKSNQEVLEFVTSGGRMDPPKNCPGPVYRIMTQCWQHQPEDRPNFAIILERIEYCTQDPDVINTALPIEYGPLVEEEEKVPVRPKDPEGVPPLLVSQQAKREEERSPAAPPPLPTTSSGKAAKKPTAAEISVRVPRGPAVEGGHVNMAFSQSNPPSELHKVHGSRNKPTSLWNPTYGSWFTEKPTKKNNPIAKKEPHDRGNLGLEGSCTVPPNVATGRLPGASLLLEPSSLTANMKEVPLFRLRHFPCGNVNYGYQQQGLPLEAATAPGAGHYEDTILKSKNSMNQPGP
In short: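 Final compound range 0.00017 to 10 μM (twelve 1:3 dilutions). Kinase reaction with ATP and biotinylated synthetic peptide runs 120 min at 20° C, stopped with EDTA; phosphotyrosine detected by HTRF after 60 min. Inhibition referenced to DMSO (1%) and EDTA (0.1 M) controls, curve-fitted.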

human IR (hIR) = biological target: T1, human IR (hIR) (Homo sapiens, UniProt P06213); test: TR-FRET kinase assay of purified hIR; assay type: biochemical; conditions: activated hIR 0.5 nM, 10 μM ATP, values given as pIC50 category
T1 construct: containing amino acid residues 979-1382 of human IR; made in house; host or cells: Sf9 cells (baculovirus), same process as hIGF1R
T1 sequence (P06213 979-1382): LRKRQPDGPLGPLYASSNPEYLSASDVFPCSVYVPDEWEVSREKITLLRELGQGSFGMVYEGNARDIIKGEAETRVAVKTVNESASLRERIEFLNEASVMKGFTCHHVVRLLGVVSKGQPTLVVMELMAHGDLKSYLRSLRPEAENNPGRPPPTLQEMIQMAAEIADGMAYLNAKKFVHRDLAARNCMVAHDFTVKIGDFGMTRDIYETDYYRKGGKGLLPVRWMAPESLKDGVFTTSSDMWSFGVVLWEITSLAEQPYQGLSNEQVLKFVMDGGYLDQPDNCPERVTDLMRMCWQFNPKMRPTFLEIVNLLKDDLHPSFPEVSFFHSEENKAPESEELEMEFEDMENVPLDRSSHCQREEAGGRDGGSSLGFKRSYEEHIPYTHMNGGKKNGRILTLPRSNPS

[1] = biological target: T2, NIH-3T3 cells overexpressing human IGF-1R (Homo sapiens, UniProt P08069); test: IGF-1R cellular autophosphorylation (DELFIA); assay type: cell-based
T2 construct: expressed in transfected cells; host or cells: NIH-3T3 (mouse fibroblasts)
T2 sequence (P08069 31-1367): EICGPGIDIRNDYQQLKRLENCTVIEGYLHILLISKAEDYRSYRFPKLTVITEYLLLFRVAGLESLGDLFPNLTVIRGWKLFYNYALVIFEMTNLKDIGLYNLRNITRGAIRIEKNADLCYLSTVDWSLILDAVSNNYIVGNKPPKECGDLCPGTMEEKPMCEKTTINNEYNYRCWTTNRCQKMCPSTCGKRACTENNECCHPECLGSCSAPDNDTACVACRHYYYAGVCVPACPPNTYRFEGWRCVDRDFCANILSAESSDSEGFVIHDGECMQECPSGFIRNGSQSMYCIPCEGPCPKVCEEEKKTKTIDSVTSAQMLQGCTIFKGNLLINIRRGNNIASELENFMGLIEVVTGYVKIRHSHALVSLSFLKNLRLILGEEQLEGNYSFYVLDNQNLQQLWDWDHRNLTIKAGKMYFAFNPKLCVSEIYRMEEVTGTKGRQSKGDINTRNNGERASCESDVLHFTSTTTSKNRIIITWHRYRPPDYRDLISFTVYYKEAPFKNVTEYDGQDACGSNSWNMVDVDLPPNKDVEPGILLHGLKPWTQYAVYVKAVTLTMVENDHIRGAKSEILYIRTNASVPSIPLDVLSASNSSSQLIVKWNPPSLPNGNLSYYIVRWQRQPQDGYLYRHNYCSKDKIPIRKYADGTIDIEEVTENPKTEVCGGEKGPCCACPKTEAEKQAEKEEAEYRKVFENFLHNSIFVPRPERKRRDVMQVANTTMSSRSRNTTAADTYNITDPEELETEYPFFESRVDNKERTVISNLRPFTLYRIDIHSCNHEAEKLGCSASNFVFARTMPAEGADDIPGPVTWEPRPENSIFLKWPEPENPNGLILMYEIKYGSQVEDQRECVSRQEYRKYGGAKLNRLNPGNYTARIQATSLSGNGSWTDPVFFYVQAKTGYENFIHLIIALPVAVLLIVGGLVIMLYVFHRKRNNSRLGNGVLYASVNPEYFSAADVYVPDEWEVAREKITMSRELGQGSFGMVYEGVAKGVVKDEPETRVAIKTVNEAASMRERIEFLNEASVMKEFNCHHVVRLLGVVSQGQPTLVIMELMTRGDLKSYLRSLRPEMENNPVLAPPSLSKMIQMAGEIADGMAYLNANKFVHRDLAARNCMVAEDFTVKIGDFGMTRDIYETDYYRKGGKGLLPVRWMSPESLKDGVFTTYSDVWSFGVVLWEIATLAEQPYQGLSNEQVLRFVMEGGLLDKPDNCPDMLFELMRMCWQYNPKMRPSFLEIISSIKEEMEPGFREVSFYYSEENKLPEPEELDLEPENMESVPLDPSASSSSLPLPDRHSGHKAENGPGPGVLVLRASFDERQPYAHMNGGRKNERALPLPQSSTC
In short: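 Receptor autophosphorylation measured by DELFIA, capturing IGF-1R or IRβ and detecting with europium anti-pTyr, reported as percent of IGF-1- or insulin-stimulated signal. Compounds (30 uM to 1.5 nM) added 2 h before ligand, then 15 min stimulation (IGF-1 30 ng/ml or insulin 3 ug/ml).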

SMILES	IC50 (ALK)	IC50 (human IR (hIR))	IC50 [1]
CCN(CC)CC(=O)N1CCc2cc(OC)c(Nc3nc(Nc4cccc(F)c4C(N)=O)c4cc[nH]c4n3)cc21 [Example 136, 2-[(2-{[1-(N,N-diethylglycyl)-5-(methyloxy)-2,3-dihydro-1H-indol-6-yl]amino}-1H-pyrrolo[2,3-d]pyrimidin-4-yl)amino]-6-fluorobenzamide]	1.26 to 3.98 nM	1.26 to 3.98 nM	< 100 nM
COc1cc2c(cc1Nc1nc(Nc3cccc(F)c3C(N)=O)c3cc[nH]c3n1)N(C(=O)CN1CCCC1)CC2 [Example 138, 2-fluoro-6-[(2-{[5-(methyloxy)-1-(1-pyrrolidinylacetyl)-2,3-dihydro-1H-indol-6-yl]amino}-1H-pyrrolo[2,3-d]pyrimidin-4-yl)amino]benzamide]	1.26 to 3.98 nM	0.251 to 1 nM	< 100 nM
CNC(=O)c1c(F)cccc1Nc1nc(Nc2cc3c(cc2OC)CCN3C(=O)CN2CCCC2)nc2[nH]ccc12 [Example 139, 2-fluoro-N-methyl-6-[(2-{[5-(methyloxy)-1-(1-pyrrolidinylacetyl)-2,3-dihydro-1H-indol-6-yl]amino}-1H-pyrrolo[2,3-d]pyrimidin-4-yl)amino]benzamide]	0.251 to 1 nM	1.26 to 3.98 nM	< 100 nM
COc1cc2c(cc1Nc1nc(Nc3cccc(F)c3C(N)=O)c3cc[nH]c3n1)N(C(=O)CN)CC2 [Example 141, 2-fluoro-6-[(2-{[1-glycyl-5-(methyloxy)-2,3-dihydro-1H-indol-6-yl]amino}-1H-pyrrolo[2,3-d]pyrimidin-4-yl)amino]benzamide]	1.26 to 3.98 nM	1.26 to 3.98 nM	> 500 nM
CNCC(=O)N1CCc2cc(OC)c(Nc3nc(Nc4cccc(F)c4C(N)=O)c4cc[nH]c4n3)cc21 [Example 142, 2-fluoro-6-[(2-{[1-(N-methylglycyl)-5-(methyloxy)-2,3-dihydro-1H-indol-6-yl]amino}-1H-pyrrolo[2,3-d]pyrimidin-4-yl)amino]benzamide]	1.26 to 3.98 nM	1.26 to 3.98 nM	< 100 nM
COc1cc2c(cc1Nc1nc(Nc3cc(F)cc(F)c3C(=O)NC(C)C)c3cc[nH]c3n1)N(C(=O)CN(C)C)CC2 [Example 153, 2-[(2-{[1-(N,N-dimethylglycyl)-5-(methyloxy)-2,3-dihydro-1H-indol-6-yl]amino}-1H-pyrrolo[2,3-d]pyrimidin-4-yl)amino]-4,6-difluoro-N-(1-methylethyl)benzamide]	0.251 to 1 nM	1.26 to 3.98 nM	100 to 500 nM
COc1cc2c(cc1Nc1nc(Nc3cc(F)cc(F)c3C(=O)NCC(C)C)c3cc[nH]c3n1)N(C(=O)CN(C)C)CC2 [Example 154, 2-[(2-{[1-(N,N-dimethylglycyl)-5-(methyloxy)-2,3-dihydro-1H-indol-6-yl]amino}-1H-pyrrolo[2,3-d]pyrimidin-4-yl)amino]-4,6-difluoro-N-(2-methylpropyl)benzamide]	1.26 to 3.98 nM	1.26 to 3.98 nM	100 to 500 nM
COc1cc2c(cc1Nc1nc(Nc3cc(F)cc(F)c3C(=O)NCc3ccc(F)cc3)c3cc[nH]c3n1)N(C(=O)CN(C)C)CC2 [Example 155, 2-[(2-{[1-(N,N-dimethylglycyl)-5-(methyloxy)-2,3-dihydro-1H-indol-6-yl]amino}-1H-pyrrolo[2,3-d]pyrimidin-4-yl)amino]-4,6-difluoro-N-[(4-fluorophenyl)methyl]benzamide]	5.01 to 200 nM	1.26 to 3.98 nM	100 to 500 nM
CCCNC(=O)c1c(F)cccc1Nc1nc(Nc2cc3c(cc2OC)CCN3C(=O)CN(C)C)nc2[nH]ccc12 [Example 156, 2-[(2-{[1-(N,N-dimethylglycyl)-5-(methyloxy)-2,3-dihydro-1H-indol-6-yl]amino}-1H-pyrrolo[2,3-d]pyrimidin-4-yl)amino]-6-fluoro-N-propylbenzamide]	0.251 to 1 nM	1.26 to 3.98 nM	100 to 500 nM
COc1cc2c(cc1Nc1nc(Nc3cccc(F)c3C(=O)NCC(C)C)c3cc[nH]c3n1)N(C(=O)CN(C)C)CC2 [Example 157, 2-[(2-{[1-(N,N-dimethylglycyl)-5-(methyloxy)-2,3-dihydro-1H-indol-6-yl]amino}-1H-pyrrolo[2,3-d]pyrimidin-4-yl)amino]-6-fluoro-N-(2-methylpropyl)benzamide]	1.26 to 3.98 nM	1.26 to 3.98 nM	100 to 500 nM
COc1cc2c(cc1Nc1nc(Nc3cccc(F)c3C(=O)NC(C)C)c3cc[nH]c3n1)N(C(=O)CN(C)C)CC2 [Example 158, 2-[(2-{[1-(N,N-dimethylglycyl)-5-(methyloxy)-2,3-dihydro-1H-indol-6-yl]amino}-1H-pyrrolo[2,3-d]pyrimidin-4-yl)amino]-6-fluoro-N-(1-methylethyl)benzamide]	0.251 to 1 nM	1.26 to 3.98 nM	100 to 500 nM
COc1cc2c(cc1Nc1nc(Nc3ccc(F)c(F)c3C(N)=O)c3cc[nH]c3n1)N(C(=O)CN(C)C)CCC2 [Example 162, 6-[(2-{[1-(N,N-dimethylglycyl)-6-(methyloxy)-1,2,3,4-tetrahydro-7-quinolinyl]amino}-1H-pyrrolo[2,3-d]pyrimidin-4-yl)amino]-2,3-difluorobenzamide]	1.26 to 3.98 nM	0.251 to 1 nM	< 100 nM
CNC(=O)c1c(Nc2nc(Nc3cc4c(cc3OC)CCCN4C(=O)CN(C)C)nc3[nH]ccc23)ccc(F)c1F [Example 163, 6-[(2-{[1-(N,N-dimethylglycyl)-6-(methyloxy)-1,2,3,4-tetrahydro-7-quinolinyl]amino}-1H-pyrrolo[2,3-d]pyrimidin-4-yl)amino]-2,3-difluoro-N-methylbenzamide]	1.26 to 3.98 nM	1.26 to 3.98 nM	< 100 nM
CCN(C)CC(=O)N1CCc2cc(OC)c(Nc3nc(Nc4cccc(F)c4C(N)=O)c4cc[nH]c4n3)cc21 [Example 166, 2-[(2-{[1-(N-ethyl-N-methylglycyl)-5-(methyloxy)-2,3-dihydro-1H-indol-6-yl]amino}-1H-pyrrolo[2,3-d]pyrimidin-4-yl)amino]-6-fluorobenzamide]	1.26 to 3.98 nM	1.26 to 3.98 nM	< 100 nM
CCCN(C)CC(=O)N1CCc2cc(OC)c(Nc3nc(Nc4cccc(F)c4C(=O)NC)c4cc[nH]c4n3)cc21 [Example 167, 2-fluoro-N-methyl-6-[(2-{[5-(methyloxy)-1-(N-methyl-N-propylglycyl)-2,3-dihydro-1H-indol-6-yl]amino}-1H-pyrrolo[2,3-d]pyrimidin-4-yl)amino]benzamide]	1.26 to 3.98 nM and 0.251 to 1 nM	1.26 to 3.98 nM	100 to 500 nM
CNC(=O)c1c(F)cc(Cl)cc1Nc1nc(Nc2cc3c(cc2OC)CCCN3C(=O)CN2CCCC2)nc2[nH]ccc12 [Example 174, 4-chloro-2-fluoro-N-methyl-6-[(2-{[6-(methyloxy)-1-(1-pyrrolidinylacetyl)-1,2,3,4-tetrahydro-7-quinolinyl]amino}-1H-pyrrolo[2,3-d]pyrimidin-4-yl)amino]benzamide]	1.26 to 3.98 nM	1.26 to 3.98 nM	100 to 500 nM
CCN(CCO)CC(=O)N1CCc2cc(OC)c(Nc3nc(Nc4cccc(F)c4C(N)=O)c4cc[nH]c4n3)cc21 [Example 177, 2-[(2-{[1-[N-ethyl-N-(2-hydroxyethyl)glycyl]-5-(methyloxy)-2,3-dihydro-1H-indol-6-yl]amino}-1H-pyrrolo[2,3-d]pyrimidin-4-yl)amino]-6-fluorobenzamide]	1.26 to 3.98 nM	1.26 to 3.98 nM	100 to 500 nM
